According to the NIST ThermoML archive (doi:10.1016/j.jct.2005.07.011):

Assay: excess molar enthalpy (molar enthalpy of mixing); xn = mol fraction of the nth substance listed
Details: Liquid

CCCCCO [pentan-1-ol] + COC(=O)OC
Details	excess molar enthalpy [kcal/mol]
298.15 K, 1000 kPa, x2 = 0.05	0.133
298.15 K, 1000 kPa, x2 = 0.101	0.246
298.15 K, 1000 kPa, x2 = 0.151	0.334
298.15 K, 1000 kPa, x2 = 0.2	0.405
298.15 K, 1000 kPa, x2 = 0.25	0.459
298.15 K, 1000 kPa, x2 = 0.3	0.498
298.15 K, 1000 kPa, x2 = 0.35	0.524
298.15 K, 1000 kPa, x2 = 0.4	0.542
298.15 K, 1000 kPa, x2 = 0.45	0.552
298.15 K, 1000 kPa, x2 = 0.5	0.552
298.15 K, 1000 kPa, x2 = 0.55	0.541
298.15 K, 1000 kPa, x2 = 0.601	0.52
298.15 K, 1000 kPa, x2 = 0.651	0.493
298.15 K, 1000 kPa, x2 = 0.701	0.454
298.15 K, 1000 kPa, x2 = 0.75	0.403
298.15 K, 1000 kPa, x2 = 0.851	0.273
298.15 K, 1000 kPa, x2 = 0.899	0.196
298.15 K, 1000 kPa, x2 = 0.949	0.104
313.15 K, 100 kPa, x2 = 0.05	0.138
313.15 K, 100 kPa, x2 = 0.101	0.259
313.15 K, 100 kPa, x2 = 0.151	0.354
313.15 K, 100 kPa, x2 = 0.2	0.432
313.15 K, 100 kPa, x2 = 0.25	0.494
313.15 K, 100 kPa, x2 = 0.301	0.541
313.15 K, 100 kPa, x2 = 0.351	0.571
313.15 K, 100 kPa, x2 = 0.402	0.593
313.15 K, 100 kPa, x2 = 0.451	0.602
313.15 K, 100 kPa, x2 = 0.501	0.601
313.15 K, 100 kPa, x2 = 0.549	0.59
313.15 K, 100 kPa, x2 = 0.601	0.567
313.15 K, 100 kPa, x2 = 0.648	0.538
313.15 K, 100 kPa, x2 = 0.749	0.446
313.15 K, 100 kPa, x2 = 0.799	0.376
313.15 K, 100 kPa, x2 = 0.851	0.304
313.15 K, 100 kPa, x2 = 0.899	0.207
313.15 K, 100 kPa, x2 = 0.949	0.103
313.15 K, 1000 kPa, x2 = 0.05	0.134
313.15 K, 1000 kPa, x2 = 0.101	0.255
313.15 K, 1000 kPa, x2 = 0.151	0.352
313.15 K, 1000 kPa, x2 = 0.2	0.427
313.15 K, 1000 kPa, x2 = 0.25	0.49
313.15 K, 1000 kPa, x2 = 0.301	0.537
313.15 K, 1000 kPa, x2 = 0.351	0.569
313.15 K, 1000 kPa, x2 = 0.401	0.591
313.15 K, 1000 kPa, x2 = 0.45	0.601
313.15 K, 1000 kPa, x2 = 0.501	0.601
313.15 K, 1000 kPa, x2 = 0.549	0.59
313.15 K, 1000 kPa, x2 = 0.601	0.566
313.15 K, 1000 kPa, x2 = 0.652	0.536
313.15 K, 1000 kPa, x2 = 0.749	0.455
313.15 K, 1000 kPa, x2 = 0.799	0.387
313.15 K, 1000 kPa, x2 = 0.851	0.308
313.15 K, 1000 kPa, x2 = 0.899	0.225
313.15 K, 1000 kPa, x2 = 0.949	0.109
313.15 K, 10000 kPa, x2 = 0.05	0.136
313.15 K, 10000 kPa, x2 = 0.101	0.255
313.15 K, 10000 kPa, x2 = 0.151	0.352
313.15 K, 10000 kPa, x2 = 0.199	0.427
313.15 K, 10000 kPa, x2 = 0.249	0.488
313.15 K, 10000 kPa, x2 = 0.3	0.537
313.15 K, 10000 kPa, x2 = 0.349	0.569
313.15 K, 10000 kPa, x2 = 0.4	0.589
313.15 K, 10000 kPa, x2 = 0.449	0.599
313.15 K, 10000 kPa, x2 = 0.499	0.6
313.15 K, 10000 kPa, x2 = 0.551	0.588
313.15 K, 10000 kPa, x2 = 0.6	0.567
313.15 K, 10000 kPa, x2 = 0.65	0.535
313.15 K, 10000 kPa, x2 = 0.85	0.309
313.15 K, 10000 kPa, x2 = 0.899	0.222
313.15 K, 10000 kPa, x2 = 0.949	0.106
328.15 K, 1000 kPa, x2 = 0.05	0.137
328.15 K, 1000 kPa, x2 = 0.101	0.258
328.15 K, 1000 kPa, x2 = 0.151	0.356
328.15 K, 1000 kPa, x2 = 0.202	0.441
328.15 K, 1000 kPa, x2 = 0.252	0.506
328.15 K, 1000 kPa, x2 = 0.3	0.555
328.15 K, 1000 kPa, x2 = 0.35	0.592
328.15 K, 1000 kPa, x2 = 0.4	0.616
328.15 K, 1000 kPa, x2 = 0.45	0.629
328.15 K, 1000 kPa, x2 = 0.5	0.631
328.15 K, 1000 kPa, x2 = 0.55	0.622
328.15 K, 1000 kPa, x2 = 0.601	0.6
328.15 K, 1000 kPa, x2 = 0.651	0.568
328.15 K, 1000 kPa, x2 = 0.701	0.525
328.15 K, 1000 kPa, x2 = 0.75	0.471
328.15 K, 1000 kPa, x2 = 0.851	0.327
328.15 K, 1000 kPa, x2 = 0.899	0.237
328.15 K, 1000 kPa, x2 = 0.949	0.122
